Source: patent publication US20050106171A1, “METHODS AND COMPOSITIONS FOR TREATING EPILEPSY” (priority 2003, published 2005)

Tests used:
[1] = test system: rats induced with cardiazol; assay: Anti-seizure effect of rats induced with cardiazol; assay type: in vivo, Wistar rats; conditions: day 7, cardiazol 70 mg/kg subcutaneous 30 minutes after last dose; dosed twice daily for 1 week; 20 rats per group
Text: Cardiazol induces seizure activity through intensifying excitatory synaptic activity of the brain. At the appropriate dose, cardiazol induces epileptic bursts that occur spontaneously.
An equal number of female and male Wistar rats that were […], weighing 200-220 g were provided by the Chinese Academy of Military Medical Sciences, Beijing, China. The rats were divided into four groups, each containing 20 rats: the test group (AY), the control yeast group (NY), the positive control group (CK2) and negative control group (CK1). Each rat in the test, control yeast and negative control groups was administered twice daily 0.6 ml of the activated yeast composition, the control yeast composition, and saline, respectively, for 1 week. Each mouse in the positive group was administered twice daily 0.04 g/kg (body weight) of phenobarbital (dissolved in 0.6 ml saline) for 1 week.
On day 7, 30 minutes after administering the last dosage of the above compositions, each group was administered by subcutaneous injection 70 mg/kg (body weight) of cardiazol (prepared as a 5% cardiazol solution in saline). The number of seizures occurred, incubation time (time between completion of injection and first seizure) and life span after injection was recorded immediately thereafter as shown in Table 3.

[2] = test system: electroshocked mice; assay: Anti-seizure effect on electroshocked mice; assay type: in vivo, Kunming mice; conditions: 70 mice per group, dosed twice daily
Text: Electrodes are placed at the ears of the mice to provide instant stimulation through a strong electric currency. An appropriate electric currency induces an excessive surge of electrical activity in the brain resulting in seizures to occur.
Kunming grade healthy mice, which were 50-70 days old, weighing 18-22 g, were provided by the Institute of Zoology, Chinese Academy of Sciences, Beijing, China. The electroshock device (model GJ-2, manufactured by Medical Instrument Factory, Zhejiang Medical University) was adjusted to an output frequency of 60 Hz and voltage of 125 V. An equal number of male and female mice were selected. The ears of the mice were covered with saturated saline soaked-cotton. The electrodes were then clipped onto the ears of the mice. The mice were electroshocked three times for 0.3 seconds at an interval of 10 seconds. Mice with seizure activity were then divided into four groups, each group containing 70 mice: the test group (AY), the control yeast group (NY), the positive control group (CK2) and negative control group (CK1). Each mouse in the test, control yeast and negative control groups was administered twice daily 0.4 ml of the activated yeast composition, the control yeast composition, and saline, respectively, for 1 week. Each mouse in the positive control group was administered twice daily 15 mg/kg of phenobarbital for 1 week.
On each day, the mice were electroshocked once for 0.3 seconds. The number of mice with seizure activity were monitored as illustrated in Table 2.

## CCC1(c2ccccc2)C(=O)NC(=O)NC1=O [CK2, phenobarbital]
[1]
  incubation time (time between completion of injection and first seizure): 7.23 ± 5.32 min
  life span after injection: 22.76 ± 17.37 min
[2]; Day 1
  % mice anti-seizure: 15.7%
[2]; Day 1, intragastric, electroshocked once for 0.3 seconds each day
  No. mice with seizure activity: 59
[2]; Day 2
  % mice anti-seizure: 31.4%
  No. mice with seizure activity: 48
[2]; Day 3
  % mice anti-seizure: 20%
  No. mice with seizure activity: 56
[2]; Day 4
  % mice anti-seizure: 21.4%
  No. mice with seizure activity: 55
[2]; Day 5
  % mice anti-seizure: 17.1%
  No. mice with seizure activity: 58
[2]; Day 6
  % mice anti-seizure: 12.8%
  No. mice with seizure activity: 61
[2]; Day 7
  % mice anti-seizure: 12.9%
  No. mice with seizure activity: 61
